Data from patent publication US6410733B1, “Amidine inhibitors of serine proteases” (Genentech, Inc., priority 2000, dated 2002).

Target: human Factor Xa (Homo sapiens, UniProt P00742)
Assay: Factor Xa assay
Type: biochemical
Set-up: This complex converts factor X to Xa; purchased Hematologic Technologies
Conditions: 3.3 nM Xa, S-2222 0.5 mM; read-out: binding affinity to serine proteases: Xa (constant of inhibition Ki)
Method: These procedures are used to determine the constant of inhibition (Ki) for a sample compound of the invention.
Coagulation Factor: human Factor Xa, Thrombin, or Plasma Kallikrein (Hematologic Technologies) Dilute to 0.45 μg/mL (9.8 nM) in assay buffer.
Substrate: S-2222, S2366 or S2302—(See below—Chromogenix Inc,) Reconstitute at 5 mM in H2O. Dilute to 1.5 mM in assay buffer prior to use.
Samples: Dilute samples to 3% DMSO in assay buffer.
1. Add 50 μL sample to each well.
2. Add 50 μL appropriately diluted coagulation factor to each well.
3. Incubate for 5 minutes at room temperature with gentle agitation.
4. Add 50 μL appropriately diluted substrate to each well.
5. Agitate plate for 20-25 sec.
6. Monitor absorbance at 405 nm every 10 sec for a total of 5 minutes at room temperature.
7. Calculate Vmax over 10 points.

Chain of human Factor Xa (P00742 235-488 limits assumed): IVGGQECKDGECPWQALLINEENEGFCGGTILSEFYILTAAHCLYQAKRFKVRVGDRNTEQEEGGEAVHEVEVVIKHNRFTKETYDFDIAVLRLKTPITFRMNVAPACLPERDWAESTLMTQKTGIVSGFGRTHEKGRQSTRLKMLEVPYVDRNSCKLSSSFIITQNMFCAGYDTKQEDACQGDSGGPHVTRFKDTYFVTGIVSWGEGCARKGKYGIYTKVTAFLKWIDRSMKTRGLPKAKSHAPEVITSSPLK
Chain of human Factor Xa (P00742 41-179 limits assumed): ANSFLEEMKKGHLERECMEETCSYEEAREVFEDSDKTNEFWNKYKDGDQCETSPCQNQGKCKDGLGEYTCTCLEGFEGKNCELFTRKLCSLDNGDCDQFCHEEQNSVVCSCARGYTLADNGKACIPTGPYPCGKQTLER

C[C@@H](NC(=O)[C@@H]1C[C@@H](Oc2cccc(C(=N)N)c2)CN1)c1ccccc1 [compound 26]
Ki: 114 µM
